ChEMBL document CHEMBL2390846, “Small-molecule pyrimidine inhibitors of the cdc2-like (Clk) and dual specificity tyrosine phosphorylation-regulated (Dyrk) kinases: development of chemical probe ML315” (Bioorg Med Chem Lett, 2013)

Experiments:
[1] = biological target: Dual specificity protein kinase CLK2 (Homo sapiens, UniProt P49760)
[2] = biological target: T1, Dual specificity tyrosine-phosphorylation-regulated kinase 1A (Homo sapiens, UniProt Q13627)
[3] = biological target: Dual specificity protein kinase CLK1 (Homo sapiens, UniProt P49759)
Chain of Dual specificity protein kinase CLK1 (P49759 whole entry): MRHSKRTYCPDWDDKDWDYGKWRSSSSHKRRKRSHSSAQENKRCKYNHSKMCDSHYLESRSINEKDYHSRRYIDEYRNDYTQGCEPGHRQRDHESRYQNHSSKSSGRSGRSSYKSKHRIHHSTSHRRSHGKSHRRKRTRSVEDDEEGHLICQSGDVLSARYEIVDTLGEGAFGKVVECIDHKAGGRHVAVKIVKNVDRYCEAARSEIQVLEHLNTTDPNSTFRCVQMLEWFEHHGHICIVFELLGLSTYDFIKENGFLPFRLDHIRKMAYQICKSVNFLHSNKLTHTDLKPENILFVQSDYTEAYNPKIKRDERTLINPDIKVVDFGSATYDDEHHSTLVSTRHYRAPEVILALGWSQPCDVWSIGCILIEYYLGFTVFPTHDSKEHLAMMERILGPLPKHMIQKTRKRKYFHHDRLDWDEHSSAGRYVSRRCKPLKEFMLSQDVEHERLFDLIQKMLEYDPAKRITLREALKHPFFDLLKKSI

[4] = biological target: T1, Dual specificity tyrosine-phosphorylation-regulated kinase 1A; experiment: Inhibition of DYRK1A (unknown origin) by bioluminescence assay
[5] = biological target: Dual specificity tyrosine-phosphorylation-regulated kinase 1B (Homo sapiens, UniProt Q9Y463)
Chain of Dual specificity tyrosine-phosphorylation-regulated kinase 1B (Q9Y463 whole entry): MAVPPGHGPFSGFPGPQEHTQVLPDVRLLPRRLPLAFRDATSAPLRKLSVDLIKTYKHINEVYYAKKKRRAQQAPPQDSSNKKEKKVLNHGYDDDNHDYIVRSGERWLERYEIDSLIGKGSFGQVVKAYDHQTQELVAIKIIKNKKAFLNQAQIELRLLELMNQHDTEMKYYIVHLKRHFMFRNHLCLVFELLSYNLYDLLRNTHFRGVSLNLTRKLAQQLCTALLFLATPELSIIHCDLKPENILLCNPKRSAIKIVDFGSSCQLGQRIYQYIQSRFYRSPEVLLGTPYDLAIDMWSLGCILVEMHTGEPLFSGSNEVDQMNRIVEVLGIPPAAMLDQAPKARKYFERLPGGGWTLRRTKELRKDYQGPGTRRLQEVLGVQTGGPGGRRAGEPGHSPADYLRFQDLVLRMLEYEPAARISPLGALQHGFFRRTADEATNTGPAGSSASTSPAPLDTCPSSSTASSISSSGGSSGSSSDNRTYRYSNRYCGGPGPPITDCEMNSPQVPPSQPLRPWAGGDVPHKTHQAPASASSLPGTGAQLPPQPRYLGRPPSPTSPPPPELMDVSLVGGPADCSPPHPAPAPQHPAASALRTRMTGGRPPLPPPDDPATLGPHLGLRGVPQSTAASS

[6] = biological target: T2, Dual specificity protein kinase CLK4 (Homo sapiens, UniProt Q9HAZ1); experiment: Inhibition of CLK4 (unknown origin) by bioluminescence assay
T2 sequence (Q9HAZ1 whole entry): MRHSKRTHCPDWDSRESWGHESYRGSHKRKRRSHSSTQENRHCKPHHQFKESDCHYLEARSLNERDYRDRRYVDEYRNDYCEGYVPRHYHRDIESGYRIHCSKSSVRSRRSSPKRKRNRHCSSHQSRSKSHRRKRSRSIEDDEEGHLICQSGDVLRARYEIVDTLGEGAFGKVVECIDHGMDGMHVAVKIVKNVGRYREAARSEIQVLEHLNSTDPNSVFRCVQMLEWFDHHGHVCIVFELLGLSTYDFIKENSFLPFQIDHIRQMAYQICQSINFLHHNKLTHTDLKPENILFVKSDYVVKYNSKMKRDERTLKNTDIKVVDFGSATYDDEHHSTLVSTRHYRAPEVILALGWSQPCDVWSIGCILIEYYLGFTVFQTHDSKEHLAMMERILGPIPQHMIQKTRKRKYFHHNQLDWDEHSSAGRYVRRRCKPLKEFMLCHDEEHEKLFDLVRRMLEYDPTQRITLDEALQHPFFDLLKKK

[7] = biological target: T2, Dual specificity protein kinase CLK4

Chain of Dual specificity protein kinase CLK2 (P49760 whole entry): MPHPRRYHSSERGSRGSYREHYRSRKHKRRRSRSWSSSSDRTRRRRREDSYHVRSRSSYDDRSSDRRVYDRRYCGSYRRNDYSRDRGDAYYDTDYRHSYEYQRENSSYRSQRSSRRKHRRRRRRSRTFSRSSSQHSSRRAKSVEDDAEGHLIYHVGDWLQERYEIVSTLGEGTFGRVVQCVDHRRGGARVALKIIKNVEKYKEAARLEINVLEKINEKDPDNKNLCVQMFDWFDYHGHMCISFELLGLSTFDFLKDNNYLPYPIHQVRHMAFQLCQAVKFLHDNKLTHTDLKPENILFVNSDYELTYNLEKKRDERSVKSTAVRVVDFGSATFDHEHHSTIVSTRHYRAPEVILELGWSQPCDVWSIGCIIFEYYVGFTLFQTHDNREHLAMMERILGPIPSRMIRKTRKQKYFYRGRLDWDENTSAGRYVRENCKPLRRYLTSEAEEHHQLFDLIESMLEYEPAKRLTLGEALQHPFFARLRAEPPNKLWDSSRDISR

SMILES | IC50 ([6]; read-out: IC50) | IC50 [4] | also measured
c1cncc(CNc2ncncc2-c2ccc3c(c2)OCO3)c1 |  |  | IC50 [1]: > 10 µM; IC50 [2]: > 10 µM; IC50 [3]: 4.8 µM; IC50 ([4]; read-out: IC50): 26 µM; IC50 [5]: > 10 µM
COc1ccc(CNc2ccnc(-c3cccc(C#N)c3)n2)cc1 | 9.2 µM |  | 
COc1cccc(-c2nccc(NCc3ccc(Cl)cc3)n2)c1 | 13 µM |  | 
COc1ccc(-c2ccnc(NCc3ccc(Cl)c(Cl)c3)n2)cc1 | 0.21 µM |  | IC50 [1]: 0.409 µM; IC50 [2]: 0.203 µM; IC50 [7]: 0.092 µM; IC50 [3]: 0.076 µM; IC50 ([4]; read-out: IC50): 1.16 µM; IC50 [5]: 0.411 µM
COc1ccc(-c2nccc(NCc3ccc(Cl)cc3)n2)cc1 | 13 µM | Not Active | 
CN(C)c1ccc(-c2nccc(NCc3ccc(Cl)cc3)n2)cc1 |  | Not Active | IC50 [6]: Not Active
Brc1ccc(CNc2ccnc(-c3ccc4c(c3)OCO4)n2)cc1Br | 9.2 µM | Not Active | 
COc1cccc(-c2nccc(NCc3ccc(Cl)c(Cl)c3)n2)c1 | 14.6 µM | Not Active | 
COc1ccc(CNc2ccnc(-c3ccc4c(c3)OCO4)n2)cc1 |  |  | IC50 [6]: Not Active
Cc1ccc(CNc2ccnc(-c3ccc(N(C)C)cc3)n2)cc1 |  | Not Active | IC50 [6]: Not Active
CN(C)c1ccc(-c2nccc(NCc3ccc(Cl)c(Cl)c3)n2)cc1 |  | Not Active | IC50 [6]: Not Active
COc1ccc(CNc2ccnc(-c3cccc(OC)c3)n2)cc1 | 23.2 µM |  | 
Fc1cncc(CNc2ccnc(-c3ccc4c(c3)OCO4)n2)c1 | 8.2 µM |  | 
c1cc(CNc2ccnc(-c3ccc4c(c3)OCO4)n2)ccn1 | 23.2 µM |  | 
Clc1ccc(CNc2ccnc(-c3cccnc3)n2)cc1Cl | 13 µM |  | 
Cc1ccc(CNc2ccnc(-c3ccc4c(c3)OCO4)n2)cn1 | 32.8 µM |  | 
CN(C)c1ccc(-c2ncccn2)cc1 |  | Not Active | IC50 [6]: Not Active
c1ccc(CNc2ccnc(-c3ccc4c(c3)OCO4)n2)cc1 | 23.2 µM |  | IC50 ([4]; read-out: IC50): 26 µM
Cc1ccc(CNc2ccnc(-c3ccc4c(c3)OCO4)n2)cc1 | 23.2 µM | Not Active | 
COc1ccc(-c2nccc(NCc3ccc(Cl)c(Cl)c3)n2)cc1 | 14.6 µM | Not Active | 
Clc1ccc(CNc2nccc(-c3ccc4cn[nH]c4c3)n2)cc1Cl | 5.82 µM |  | IC50 [1]: 0.429 µM; IC50 [2]: 0.169 µM; IC50 [7]: 0.123 µM; IC50 [3]: 0.183 µM; IC50 ([4]; read-out: IC50): 1.64 µM; IC50 [5]: 0.599 µM
c1ccc(CNc2ccnc(-c3cccnc3)n2)cc1 | 31.6 µM |  | 
Clc1ccc(CNc2ccnc(-c3ccc4[nH]ncc4c3)n2)cc1Cl |  |  | IC50 [2]: 2.35 µM; IC50 [3]: 1.78 µM; IC50 ([4]; read-out: IC50): 4.63 µM; IC50 [5]: 0.514 µM
Clc1ccc(CNc2ccnc(-c3cccnc3)n2)cc1 | 16.4 µM |  | 

SMILES | IC50 ([6]; read-out: IC50) | IC50 [4] | also measured
Brc1cncc(CNc2ccnc(-c3ccc4c(c3)OCO4)n2)c1 | 8.2 µM |  | 
c1cncc(CNc2nccc(-c3ccc4cn[nH]c4c3)n2)c1 | 0.04 µM |  | IC50 ([4]; read-out: IC50): 0.21 µM
Clc1ccc(CNc2ccnc(-c3ccc4c(c3)OCO4)n2)cn1 | 29.2 µM |  | IC50 ([4]; read-out: IC50): 29.2 µM
Fc1ccc(CNc2ccnc(-c3ccc4c(c3)OCO4)n2)cc1Cl | 5.2 µM |  | 
N#Cc1cccc(-c2nccc(NCc3ccccc3)n2)c1 | 14.1 µM |  | 
c1cncc(CNc2ccnc(-c3ccc4[nH]ncc4c3)n2)c1 | 0.15 µM |  | IC50 [1]: 0.665 µM; IC50 [2]: 0.349 µM; IC50 [7]: 0.574 µM; IC50 [3]: 0.964 µM; IC50 ([4]; read-out: IC50): 0.65 µM; IC50 [5]: 0.179 µM
c1cnc(-c2ccc3c(c2)OCO3)nc1 |  | Not Active | IC50 [6]: Not Active
COc1ccc(CNc2ccnc(-c3ccc(N(C)C)cc3)n2)cc1 |  | Not Active | IC50 [6]: Not Active
Cc1ccc(CNc2ccnc(-c3cccnc3)n2)cc1 | 26 µM | Not Active | 
c1cncc(CNc2ccnc(-c3ccc4c(c3)OCO4)n2)c1 | 0.063 µM |  | 
Fc1cc(CNc2ccnc(-c3ccc4c(c3)OCO4)n2)cc(F)c1F | 8.2 µM |  | 
COc1ccc(-c2ncccn2)cc1 | 29.2 µM | Not Active | 
Fc1ccc(CNc2ccnc(-c3ccc4c(c3)OCO4)n2)cc1Br | 13 µM |  | 
COc1ccc(-c2nccc(NCc3ccc(C)cc3)n2)cc1 |  | Not Active | IC50 [6]: Not Active
Clc1cncc(CNc2ccnc(-c3ccc4c(c3)OCO4)n2)c1 | 18.4 µM |  | 
Cc1ccc(CNc2ccnc(-c3cccc(C#N)c3)n2)cc1 | 23.2 µM |  | 
c1ccc(CNc2ccnc(-c3ccc4c(c3)OCO4)n2)nc1 | 9.2 µM |  | 
COc1cccc(-c2nccc(NCc3ccc(C)cc3)n2)c1 | 41.2 µM |  | 
c1ccc2ncc(CNc3ccnc(-c4ccc5c(c4)OCO5)n3)cc2c1 | 41.2 µM |  | 
c1cc(-c2ccc3c(c2)OCO3)nc(Nc2ccc3c(c2)OCO3)n1 | 0.12 µM |  | IC50 [1]: 0.259 µM; IC50 [2]: 0.025 µM; IC50 [7]: 0.075 µM; IC50 [3]: 0.18 µM; IC50 ([4]; read-out: IC50): 0.13 µM; IC50 [5]: 0.042 µM
COc1ccc(-c2ccnc(NCc3ccc(Cl)c(Cl)c3)n2)cc1OC | 26 µM |  | IC50 [7]: > 10 µM; IC50 [3]: > 10 µM; IC50 ([4]; read-out: IC50): 26 µM
COc1cccc(-c2ncccn2)c1 | 16.4 µM |  | 
COc1ccc(CNc2ccnc(-c3ccc(OC)cc3)n2)cc1 | 36.8 µM | Not Active | 
Cc1ccc(CNc2ccnc(-c3c(C)noc3C)n2)cc1 |  | Not Active | IC50 [6]: Not Active

SMILES | IC50 ([6]; read-out: IC50) | IC50 [4] | also measured
FC(F)(F)c1cc(Br)cc(Nc2nccc(-c3ccc4c(c3)OCO4)n2)c1 | 0.13 µM |  | IC50 [1]: 0.345 µM; IC50 [2]: 0.107 µM; IC50 [7]: 0.086 µM; IC50 [3]: 0.102 µM; IC50 ([4]; read-out: IC50): 0.52 µM; IC50 [5]: 0.137 µM
Fc1cc(CNc2ccnc(-c3ccc4c(c3)OCO4)n2)ccc1Cl | 13 µM |  | 
Clc1ccc(CNc2nccc(-c3ccc4c(c3)OCO4)n2)cc1 | 0.05 µM |  | 
Cc1noc(C)c1-c1ncccn1 |  | Not Active | IC50 [6]: Not Active
Fc1cc(F)cc(CNc2ccnc(-c3ccc4c(c3)OCO4)n2)c1 | 5.2 µM |  | 
Clc1ccc(CNc2ccnc(-c3ccc4c(c3)OCO4)n2)cc1 | 41.2 µM | Not Active | 
Cc1noc(C)c1-c1nccc(NCc2ccc(Cl)c(Cl)c2)n1 |  | Not Active | IC50 [6]: Not Active
Clc1ccc(CNc2cc(-c3ccc4c(c3)OCO4)ncn2)cc1Cl | 4.63 µM |  | 
Cc1noc(C)c1-c1nccc(NCc2ccc(Cl)cc2)n1 |  | Not Active | IC50 [6]: Not Active
Clc1cc(Cl)cc(CNc2ccnc(-c3ccc4c(c3)OCO4)n2)c1 | 4.1 µM | Not Active | 
COc1ccc(-c2nccc(NCc3ccccc3)n2)cc1 | 29.2 µM | Not Active | 
Brc1cc(Br)cc(CNc2ccnc(-c3ccc4c(c3)OCO4)n2)c1 | 9.2 µM | Not Active | 
Clc1cc(Cl)cc(CNc2cc(-c3ccc4c(c3)OCO4)ncn2)c1 | 1.64 µM |  | 
COc1cccc(-c2nccc(NCc3ccccc3)n2)c1 | 15.8 µM |  | 
c1cncc(-c2cc(-n3ccnc3)ncn2)c1 | 0.79 µM |  | 
Clc1ccc(CNc2ccnc(-c3ccc4c(c3)OCO4)n2)cc1Cl | 26 µM | Not Active | 
COc1ccc(CNc2ccnc(-c3c(C)noc3C)n2)cc1 |  | Not Active | IC50 [6]: Not Active
c1cncc(CNc2cc(-c3ccc4c(c3)OCO4)ncn2)c1 | 6.54 µM |  | IC50 ([4]; read-out: IC50): 16.4 µM
Clc1ccc(CNc2cc(-c3ccc4c(c3)OCO4)ncn2)cc1 | 2.32 µM |  | 
Fc1ccc(CNc2ccnc(-c3ccc4c(c3)OCO4)n2)cc1F | 10.4 µM |  | 
CN(C)c1ccc(-c2nccc(NCc3ccccc3)n2)cc1 |  | Not Active | IC50 [6]: Not Active
N#Cc1cccc(-c2ncccn2)c1 | 26 µM | Not Active | 
COc1ccccc1CNc1ncncc1-c1ccc2c(c1)OCO2 | 2.2 µM |  | 
